The results in this text go back to PMC12587545, “Noncytotoxic polymyxin derivatives enhance antibiotic action against multidrug-resistant Gram-negative bacteria” (Antimicrobial Agents and Chemotherapy, 2025).

The subject of series [1] is A. baumannii. It counts as cell-based, Acinetobacter baumannii.
Description: Gram-negative and Gram-positive bacterial isolates were grown in lysogeny broth (LB) and brain heart infusion, respectively, overnight in a shaking incubator at 250 rpm and at 37°C.
The antibacterial activity of the antibiotics and compounds was assessed using the broth microdilution assay in accordance with Clinical Laboratory Standards Institute (CLSI) guidelines ([36]), and by following a previously described protocol ([27][–][29], [54], [55]). Bacterial culture grown overnight was diluted in saline to 0.5 McFarland turbidity and was further diluted 1:50 in CAMHB to attain a final concentration of 5 × 10^5 colony-forming units (cfu)/mL for inoculation. The antibiotic or compound was serially diluted 2-fold in CAMHB on a 96-well plate and was incubated with equal volumes of bacterial inoculum overnight at 37°C. Wells containing only media were used as negative controls, and wells containing only bacteria were used as positive controls. Antibacterial activity was measured by the MIC, or the lowest concentration of agent required to inhibit visible bacterial growth. Turbidity was confirmed with a Molecular Devices (United States) EMax Plus microplate reader at a wavelength of 590 nm.
The next series has as its system E. cloacae. The method, then:
(§1) The bacterial isolates were acquired from ATCC or the Canadian Ward Surveillance (CANWARD) study ([56]). CANWARD isolates were collected from infected patients admitted to participating medical centers across Canada.
(§2) The antibiotic or compound was serially diluted 2-fold in CAMHB on a 96-well plate and was incubated with equal volumes of bacterial inoculum overnight at 37°C. Wells containing only media were used as negative controls, and wells containing only bacteria were used as positive controls. Antibacterial activity was measured by the MIC, or the lowest concentration of agent required to inhibit visible bacterial growth. Turbidity was confirmed with a Molecular Devices (United States) EMax Plus microplate reader at a wavelength of 590 nm.

For another series, the system named is K. pneumoniae. The method, then: as §1, §2
Series [2] concerns P. aeruginosa. The method, then: as §1, §2
A further series deals with E. coli. The note with it: for Resistance phenotype of MDR clinical isolates (antibiotic susceptibility value): Table S4. The method, then:
as §1
The antibiotic or compound was serially diluted 2-fold in CAMHB on a 96-well plate and was incubated with equal volumes of bacterial inoculum overnight at 37°C. Wells containing only media were used as negative controls, and wells containing only bacteria were used as positive controls. Antibacterial activity was measured by the MIC, or the lowest concentration of agent required to inhibit visible bacterial growth.

A further series relates to HK-2. The series is classed as cell-based, human. The protocol:
(§3) Kidney cell lines, HK-2 (CRL-2190) and RPTEC/TERT1 (CRL-4031), and neural cell lines, U-87 MG (HTB-14) and SK-N-SH (HTB-11), were obtained from American Type Culture Collection (ATCC). HK-2 cells were cultured in T75 flasks with keratinocyte serum-free medium supplemented with bovine pituitary extract, human epidermal growth factor, and 2.5% FBS. RPTEC/TERT1 cells were cultured in T75 flasks with Dulbecco’s modified Eagle’s medium:F12 supplemented with the ATCC (United States) human telomerase reverse transcriptase immortalized RPTEC growth kit, G418 (0.1 mg/mL final concentration), and 2% FBS. Both U-87 MG and SK-N-SH cells were cultured in minimal essential media supplemented with 10% FBS. The cells were incubated in a humidified atmosphere at 5% CO2 and at 37°C.
(§4) The cytotoxicity of the compounds toward the mammalian cell lines was assessed using the cell viability assay protocols as previously described ([29]). Designated wells in 96-well plates were seeded with HK-2 (5,000 cells), RPTEC/TERT1 (8,000 cells), U-87 MG (7,000 cells), or SK-N-SH (8,000 cells) in 50 µL. Blank wells received an identical volume of only media. After incubating the cells for 24 h, all wells were treated with varying concentrations of the compound and incubated for 48 h. Subsequently, PrestoBlue reagent (Invitrogen, United States) was added to the wells to a final concentration of 10% (vol/vol), and the plate was incubated for an additional 1 h. Fluorescence was measured with a SpectraMax M2 plate reader (Molecular Devices, United States), at excitation and emission wavelengths of 560 and 590 nm, respectively. Values from the blank wells were subtracted from the corresponding wells containing cells. The cell viability relative to the controls with vehicle was calculated and presented as mean ± standard deviation of at least two experiments with five replicates each. CC50 values were obtained using GraphPad Prism (version 10.4.1) by non-linear regression (four-parameter logistic fit).

The subject of the next series is RPTEC/TERT1. The series is classed as cell-based, human. The settings on record: 48 h. The protocol: as §3, §4
In series [3] the test system is A. baumannii. Nature of the series: Checkerboard assay (antibiotic potentiation). The settings on record: A. baumannii ATCC 17978; compound alone. The series is classed as cell-based, Acinetobacter baumannii. The protocol: The interaction between the compounds and the antibiotics was evaluated using the fractional inhibitory concentration (FIC) index. FIC indices of ≤0.5 is synergistic, 0.5 < × ≤ 4 is additive, whereas >4 is antagonistic ([34]). […] .
as §1
The antibiotic and compounds were serially diluted 2-fold in CAMHB along the x- and y-axis, respectively, on a 96-well plate that was subsequently incubated with equal volumes of bacterial inoculum overnight at 37°C. Wells containing only media were used as negative controls, and wells containing only bacteria were used as positive controls. Synergy was measured by the FIC index, which is the summation of the individual FICs of the antibiotic and the compound. The FIC is calculated by dividing the MIC of one agent in the presence of another by the MIC of the agent alone. Turbidity was confirmed with a Molecular Devices (United States) EMax Plus microplate reader at a wavelength of 590 nm. The FBS studies were conducted by following a previously published protocol ([29], [50]). The FBS was inactivated by heating at 56°C for 30 min with constant swirling.

Series [4] relates to P. aeruginosa. Nature of the series: Checkerboard assay (antibiotic potentiation). The series is classed as cell-based, Pseudomonas aeruginosa. The settings on record: P. aeruginosa PAO1; compound alone. The protocol:
The interaction between the compounds and the antibiotics was evaluated using the fractional inhibitory concentration (FIC) index. FIC indices of ≤0.5 is synergistic, 0.5 < × ≤ 4 is additive, whereas >4 is antagonistic ([34]).
Synergy was measured by the FIC index, which is the summation of the individual FICs of the antibiotic and the compound. The FIC is calculated by dividing the MIC of one agent in the presence of another by the MIC of the agent alone. […] The FBS studies were conducted by following a previously published protocol ([29], [50]). The FBS was inactivated by heating at 56°C for 30 min with constant swirling.

SMILES strings stand for the structures. Converted amounts (≈) assume the structure as drawn. Like-named read-outs stand apart in the source and are kept apart here. Positions of bridges follow the written chain, without caps; N, C: chain ends. Non-standard residues stand in square brackets, D forms with d. Residues, ends and D or L forms follow the SMILES beside them. *: point of attachment. Agp = N=C(N)NC[C@H](N)C(=O)O; X1 = CC[C@H](C)CCCCC(=O)*; Octanoyl = CCCCCCCC(=O)*; Dab = NCC[C@H](N)C(=O)O; Dap = NC[C@H](N)C(=O)O Where only a bound is given, the exact number is not on record here.

With `CC[C@H](C)CCCCC(=O)N[C@@H](CCN)C(=O)N[C@H](C(=O)N[C@@H](CCN)C(=O)N[C@H]1CCNC(=O)[C@H]([C@@H](C)O)NC(=O)[C@H](CCN)NC(=O)[C@H](CCN)NC(=O)[C@H](CC(C)C)NC(=O)[C@@H](CC(C)C)NC(=O)[C@H](CCN)NC1=O)[C@@H](C)O` [Colistin, colistin] (X1-[Dab]T[Dab][Dab][Dab][dL]L[Dab][Dab]T; lactam 4-C (inferred); N-terminus assumed), the MIC with A. baumannii [1] (A. baumannii 92247, colistin-resistant) is 4 µg/mL (≈ 3.42 µM); against A. baumannii [1] (A. baumannii 110193), 0.5 µg/mL (≈ 0.428 µM); in the series with A. baumannii [1] (A. baumannii AB027), 0.25 µg/mL (≈ 0.214 µM); against A. baumannii [1] (A. baumannii AB031), 0.25 µg/mL (≈ 0.214 µM); in the series on E. cloacae (E. cloacae 117029), 0.25 µg/mL (≈ 0.214 µM); with E. cloacae (E. cloacae 121887, colistin-resistant) it was greater than 16 µg/mL. Further, the minimum inhibitory concentration (MIC) against K. pneumoniae (K. pneumoniae 113250, colistin-resistant) was found to be 256 µg/mL (≈ 219 µM); with K. pneumoniae (K. pneumoniae 116381) it was 1 µg/mL (≈ 0.855 µM); in the series with P. aeruginosa [2] (P. aeruginosa 259-96916, clinical isolate), 0.5 µg/mL (≈ 0.428 µM); in the series with P. aeruginosa [2] (P. aeruginosa 262-101856, clinical isolate) it was 2 µg/mL (≈ 1.71 µM); in the series on P. aeruginosa [2] (P. aeruginosa 264-104354, clinical isolate) it was 1 µg/mL (≈ 0.855 µM); against P. aeruginosa [2] (P. aeruginosa 101243, colistin-resistant) it was 1024 µg/mL (≈ 876 µM). For the same compound, the MIC in the series with P. aeruginosa [2] (P. aeruginosa 114228, colistin-resistant) was 4 µg/mL (≈ 3.42 µM); against E. coli (E. coli 94393, colistin-resistant), 4 µg/mL (≈ 3.42 µM); with E. coli (E. coli 94474, colistin-resistant), 16 µg/mL (≈ 13.7 µM); against E. coli (E. coli 107115), 0.125 µg/mL (≈ 0.107 µM); in the series on E. coli (E. coli 131629), no more than 0.25 µg/mL.
On to `CCCCCCCC(=O)N[C@@H](CNC(=N)N)C(=O)N[C@H](C(=O)N[C@@H](CNC(=N)N)C(=O)N[C@H]1CCNC(=O)[C@H]([C@@H](C)O)NC(=O)[C@H](CNC(=N)N)NC(=O)[C@H](CNC(=N)N)NC(=O)[C@H](CC(C)C)NC(=O)[C@@H](Cc2ccccc2)NC(=O)[C@H](CNC(=N)N)NC1=O)[C@@H](C)O` [Compound 2] (Octanoyl-[Agp]T[Agp][Dab][Agp][dF]L[Agp][Agp]T; lactam 4-C), for which, in the series on HK-2 (48 h), the “CC50 in HK-2” value turned out to be 26.9 µM. The “CC50 in RPTEC/TERT1” value with RPTEC/TERT1 was determined as 28 µM.
In the case of `CCCCCCCC(=O)N[C@@H](CN)C(=O)N[C@H](C(=O)N[C@@H](CC(=O)O)C(=O)N[C@H]1CCNC(=O)[C@H]([C@@H](C)O)NC(=O)[C@H](CN)NC(=O)[C@H](CN)NC(=O)[C@H](CC(C)C)NC(=O)[C@@H](Cc2ccccc2)NC(=O)[C@H](CN)NC1=O)[C@@H](C)O` [Compound 3] (Octanoyl-[Dap]TD[Dab][Dap][dF]L[Dap][Dap]T; lactam 4-C), the MICcompound with A. baumannii [3] and in the series on P. aeruginosa [4] was greater than 128 µg/mL throughout. The MIC in the series with A. baumannii [1], with P. aeruginosa [2] and against E. coli was greater than 128 µg/mL in each case. In addition, the “CC50 in HK-2” value with HK-2 (48 h) was 215.5 µM. In addition, the “CC50 in RPTEC/TERT1” value in the series with RPTEC/TERT1 came to 627.2 µM.
With `CCCCCCCC(=O)N[C@@H](CCN)C(=O)N[C@H](C(=O)N[C@@H](CC(=O)O)C(=O)N[C@H]1CCNC(=O)[C@H]([C@@H](C)O)NC(=O)[C@H](CCN)NC(=O)[C@H](CCN)NC(=O)[C@H](CC(C)C)NC(=O)[C@@H](Cc2ccccc2)NC(=O)[C@H](CCN)NC1=O)[C@@H](C)O` [Compound 4] (Octanoyl-[Dab]TD[Dab][Dab][dF]L[Dab][Dab]T; lactam 4-C), the “CC50 in HK-2” value was 236.1 µM with HK-2 and 236.8 µM in the series with HK-2 (48 h). The “CC50 in RPTEC/TERT1” value in the series with RPTEC/TERT1 turned out to be 238.8 µM.
In the case of `CCCCCCCC(=O)N[C@@H](CCN)C(=O)N[C@H](C(=O)N[C@@H](CCN)C(=O)N[C@H]1CCNC(=O)[C@H]([C@@H](C)O)NC(=O)[C@H](CCN)NC(=O)[C@H](CCN)NC(=O)[C@H]([C@@H](C)O)NC(=O)[C@@H]([C@H](C)O)NC(=O)[C@H](CCN)NC1=O)[C@@H](C)O` [Compound F230] (Octanoyl-[Dab]T[Dab][Dab][Dab][dT]T[Dab][Dab]T; lactam 4-C), the “CC50 in HK-2” value in the series with HK-2 (48 h) came out at 263.1 µM. In addition, in the series with RPTEC/TERT1, the “CC50 in RPTEC/TERT1” value amounted to 471.4 µM.
`CN(C)c1cc(CNCC(C)(C)C)c(O)c2c1C[C@H]1C[C@H]3[C@H](N(C)C)C(O)=C(C(N)=O)C(=O)[C@@]3(O)C(O)=C1C2=O` [OMC, omadacyline]: the “Resistance phenotype (antibiotic susceptibility profile)” value with A. baumannii [1] (A. baumannii AB027) is on record as 1; in the series with A. baumannii [1] (A. baumannii AB031) it was 2; in the series with K. pneumoniae (K. pneumoniae 113250), 2; with K. pneumoniae (K. pneumoniae 116381), 4; in the series on P. aeruginosa [2] (P. aeruginosa 259-96916), 64; with P. aeruginosa [2] (P. aeruginosa 262-101856), 64. Besides, the results for the “Resistance phenotype (antibiotic susceptibility profile)” value in the series with P. aeruginosa [2] (P. aeruginosa 264-104354) and in the series with P. aeruginosa [2] (P. aeruginosa 114228) were 64 and 128, respectively. Moreover, the “Resistance phenotype of MDR clinical isolates (antibiotic susceptibility value)” value was 4 in the series with E. cloacae (E. cloacae 117029, Table S4); 4 with E. coli (E. coli 94393 (mcr-1 +)); 16 in the series with E. coli (E. coli 94474 (mcr-1 +)); 4 in the series on E. coli (E. coli 107115).
